Source: patent US20260027116A1, “Methods of Treating Chronic Graft-Versus-Host Disease Following Allogeneic Hematopoietic Stem Cell Transplantation” (Kadmon Corporation, LLC, priority 2022, published 2026)

System: patients with cGVHD

CC(C)NC(=O)COc1cccc(-c2nc(Nc3ccc4[nH]ncc4c3)c3ccccc3n2)c1 [Belumosudil, 2-{3-[4-(1H-indazol-5-ylamino)-2-quinazolinyl]phenoxy}-N-(propan-2-yl) acetamide]
Vertigo: # Events (Cohort 1 200 mg QD): 2
Vertigo: Affected/At Risk (%) (Cohort 1 200 mg QD): 2/17 (11.76%)
Vision blurred: # Events (Cohort 1 200 mg QD): 0
Vision blurred: Affected/At Risk (%) (Cohort 1 200 mg QD): 0/17 (0%)
Vomiting: # Events (Cohort 1 200 mg QD): 4
Vomiting: Affected/At Risk (%) (Cohort 1 200 mg QD): 2/17 (11.76%)
Weight decreased: # Events (Cohort 1 200 mg QD): 1
Weight decreased: Affected/At Risk (%) (Cohort 1 200 mg QD): 1/17 (5.88%)
Weight increased: # Events (Cohort 1 200 mg QD): 9
Weight increased: Affected/At Risk (%) (Cohort 1 200 mg QD): 3/17 (17.65%)
White blood cell count decreased: # Events (Cohort 1 200 mg QD): 1
White blood cell count decreased: Affected/At Risk (%) (Cohort 1 200 mg QD): 1/17 (5.88%)
Abdominal distension: # Events (Cohort 2 200 mg BID): 0
Abdominal distension: Affected/At Risk (%) (Cohort 2 200 mg BID): 0/16 (0%)
Abdominal pain upper: # Events (Cohort 2 200 mg BID): 1
Abdominal pain upper: Affected/At Risk (%) (Cohort 2 200 mg BID): 1/16 (6.25%)
Abdominal pain: # Events (Cohort 2 200 mg BID): 4
Abdominal pain: Affected/At Risk (%) (Cohort 2 200 mg BID): 2/16 (12.5%)
Actinic keratosis: # Events (Cohort 2 200 mg BID): 1
Actinic keratosis: Affected/At Risk (%) (Cohort 2 200 mg BID): 1/16 (6.25%)
Acute kidney injury: # Events (Cohort 2 200 mg BID): 2
Acute kidney injury: Affected/At Risk (%) (Cohort 2 200 mg BID): 2/16 (12.5%)
Acute respiratory distress syndrome: # Events (Cohort 2 200 mg BID): 0
Acute respiratory distress syndrome: Affected/At Risk (%) (Cohort 2 200 mg BID): 0/16 (0%)
Adrenal insufficiency: # Events (Cohort 2 200 mg BID): 0
Adrenal insufficiency: Affected/At Risk (%) (Cohort 2 200 mg BID): 0/16 (0%)
Alanine aminotransferase increased: # Events (Cohort 2 200 mg BID): 4
Alanine aminotransferase increased: Affected/At Risk (%) (Cohort 2 200 mg BID): 3/16 (18.75%)
All grade ALT/AST increased, No. (%) (Cohort 2 200 mg BID): 5 (31)
All grade Cough, No. (%) (Cohort 2 200 mg BID): 4 (25)
All grade Diarrhea, No. (%) (Cohort 2 200 mg BID): 5 (31)
All grade Dyspnea, No. (%) (Cohort 2 200 mg BID): 6 (38)
All grade Fatigue, No. (%) (Cohort 2 200 mg BID): 3 (19)
All grade Headache, No. (%) (Cohort 2 200 mg BID): 3 (19)
All grade Hypertension, No. (%) (Cohort 2 200 mg BID): 2 (13)
All grade Nausea, No. (%) (Cohort 2 200 mg BID): 4 (25)
All grade Peripheral edema, No. (%) (Cohort 2 200 mg BID): 4 (25)
All grade URI, No. (%) (Cohort 2 200 mg BID): 9 (56)
All-Cause Mortality, % (Cohort 2 200 mg BID): (18.75%)
All-Cause Mortality, Affected/At Risk (Cohort 2 200 mg BID): 3/16
Anaemia: # Events (Cohort 2 200 mg BID): 8
Anaemia: Affected/At Risk (%) (Cohort 2 200 mg BID): 4/16 (25%)
Anal incontinence: # Events (Cohort 2 200 mg BID): 0
Anal incontinence: Affected/At Risk (%) (Cohort 2 200 mg BID): 0/16 (0%)
Anxiety: # Events (Cohort 2 200 mg BID): 3
Anxiety: Affected/At Risk (%) (Cohort 2 200 mg BID): 2/16 (12.5%)
Any AE, No. (%) (Cohort 2 200 mg BID): 16 (100)
Arthralgia: # Events (Cohort 2 200 mg BID): 1
Arthralgia: Affected/At Risk (%) (Cohort 2 200 mg BID): 1/16 (6.25%)
Aspartate aminotransferase increased: # Events (Cohort 2 200 mg BID): 2
Aspartate aminotransferase increased: Affected/At Risk (%) (Cohort 2 200 mg BID): 2/16 (12.5%)
Asthenia: # Events (Cohort 2 200 mg BID): 1
Asthenia: Affected/At Risk (%) (Cohort 2 200 mg BID): 1/16 (6.25%)
Atelectasis: # Events (Cohort 2 200 mg BID): 0
Atelectasis: Affected/At Risk (%) (Cohort 2 200 mg BID): 0/16 (0%)
Back pain: # Events (Cohort 2 200 mg BID): 2
Back pain: Affected/At Risk (%) (Cohort 2 200 mg BID): 2/16 (12.5%)
Balance disorder: # Events (Cohort 2 200 mg BID): 1
Balance disorder: Affected/At Risk (%) (Cohort 2 200 mg BID): 1/16 (6.25%)
Basal cell carcinoma: # Events (Cohort 2 200 mg BID): 1
Basal cell carcinoma: Affected/At Risk (%) (Cohort 2 200 mg BID): 1/16 (6.25%)
Benign prostatic hyperplasia: # Events (Cohort 2 200 mg BID): 0
Benign prostatic hyperplasia: Affected/At Risk (%) (Cohort 2 200 mg BID): 0/16 (0%)
Blepharitis: # Events (Cohort 2 200 mg BID): 0
Blepharitis: Affected/At Risk (%) (Cohort 2 200 mg BID): 0/16 (0%)
Blister: # Events (Cohort 2 200 mg BID): 3
Blister: Affected/At Risk (%) (Cohort 2 200 mg BID): 2/16 (12.5%)
Blood alkaline phosphatase increased: # Events (Cohort 2 200 mg BID): 1
Blood alkaline phosphatase increased: Affected/At Risk (%) (Cohort 2 200 mg BID): 1/16 (6.25%)
Blood chloride decreased: # Events (Cohort 2 200 mg BID): 1
Blood chloride decreased: Affected/At Risk (%) (Cohort 2 200 mg BID): 1/16 (6.25%)
Blood cholesterol increased: # Events (Cohort 2 200 mg BID): 0
Blood cholesterol increased: Affected/At Risk (%) (Cohort 2 200 mg BID): 0/16 (0%)
Blood creatine increased: # Events (Cohort 2 200 mg BID): 1
Blood creatine increased: Affected/At Risk (%) (Cohort 2 200 mg BID): 1/16 (6.25%)
Blood creatine phosphokinase increased: # Events (Cohort 2 200 mg BID): 0
Blood creatine phosphokinase increased: Affected/At Risk (%) (Cohort 2 200 mg BID): 0/16 (0%)
Blood creatinine increased: # Events (Cohort 2 200 mg BID): 1
Blood creatinine increased: Affected/At Risk (%) (Cohort 2 200 mg BID): 1/16 (6.25%)
Blood loss anaemia: # Events (Cohort 2 200 mg BID): 0
Blood loss anaemia: Affected/At Risk (%) (Cohort 2 200 mg BID): 0/16 (0%)
Bronchial secretion retention: # Events (Cohort 2 200 mg BID): 1
Bronchial secretion retention: Affected/At Risk (%) (Cohort 2 200 mg BID): 1/16 (6.25%)
Bronchitis: # Events (Cohort 2 200 mg BID): 0
Bronchitis: Affected/At Risk (%) (Cohort 2 200 mg BID): 0/16 (0%)
